pIC50: −log10 of the molar value.
Columns and labels:
Hepatocyte [1] = test: Hepatoprotective activity against CCL4-induced rat hepatocyte toxicity assessed as decrease in IL-1beta level at 0.1 mg/mL relative to control; type: functional; set-up: scale not given: the % may be the effect or the level left
Mus musculus [2] = species on record: Mus musculus; test: Hepatoprotective activity in mouse model of CCl4-induced liver injury assessed as reduction in ALT level at 100 microg/ml (reference value: 40.2 U/mL); type: functional; conditions: dose 100 µg/ml
Mus musculus [3] = species on record: Mus musculus; test: Hepatoprotective activity in mouse liver homogenate assessed as inhibition of iron/ascorbate lipid peroxidation at 5.0 mg/mL relative to control; type: functional; set-up: scale not given: the % may be the effect or the level left
Hepatocyte [4] = test: Hepatoprotective activity against D-GaIN/TNFalpha induced cell death in mouse hepatocytes assessed as cell survival rate at 200 uM relative to control; type: functional
Hepatocyte [5] = test: Hepatoprotective activity against D-GaIN/TNFalpha induced cell death in mouse hepatocytes assessed as cell survival rate at 100 uM relative to control; type: functional
Hepatocyte [6] = test: Hepatoprotective activity against D-GaIN/TNFalpha induced cell death in mouse hepatocytes assessed as cell survival rate at 50 uM relative to control; type: functional
Hepatocyte [7] = test: Hepatoprotective activity against CCL4-induced rat hepatocyte toxicity assessed as decrease in AST level at 0.25 mg/ml (reference value: 243.5 U/L); type: functional
Hepatocyte [8] = test: Hepatoprotective activity against CCL4-induced rat hepatocyte toxicity assessed as decrease in ALT level at 0.25 mg/ml (reference value: 119.0 U/L); type: functional
Hepatocyte [9] = test: Hepatoprotective activity against CCL4-induced rat hepatocyte toxicity assessed as decrease in MDA level at 0.25 mg/ml (reference value: 9.22 nmol/mg); type: functional
Hepatocyte [10] = test: Hepatoprotective activity against CCL4-induced rat hepatocyte toxicity assessed as increase in GSH level at 0.25 mg/ml (reference value: 3.7 mg/g); type: functional
Hepatocyte [11] = test: Hepatoprotective activity against CCL4-induced rat hepatocyte toxicity assessed as increase in SOD level at 0.25 mg/ml (reference value: 125.8 U/L); type: functional
Hepatocyte [12] = test: Hepatoprotective activity against D-GaIN-induced toxicity in mouse hepatocyte relative to control; type: functional, cell-based
Mus musculus [13] = test: Hepatoprotective activity in mouse model of D-GaIN/LPS-induced liver injury assessed as inhibition of sAST secretion at 100 mg/kg, po relative to control; type: functional
Mus musculus [14] = test: Hepatoprotective activity in mouse model of D-GaIN/LPS-induced liver injury assessed as inhibition of sALT level secretion at 100 mg/kg, po relative to control; type: functional
Hepatocyte [15] = test: Hepatoprotective activity against D-GaIN-induced toxicity in mouse hepatocytes
Rattus norvegicus = test: Hepatoprotective activity in CCl4-induced rat model of liver injury assessed as reduction in ALT level at 4 mg/kg relative to control; type: functional; set-up: scale not given: the % may be the effect or the level left
Huh-7 [16] = test: Hepatoprotective activity in human Huh-7 cells assessed as reduction in AST level; type: functional; set-up: scale not given: the % may be the effect or the level left
Huh-7 [17] = test: Hepatoprotective activity in human Huh-7 cells assessed as reduction in ALT level; type: functional; set-up: scale not given: the % may be the effect or the level left
Huh-7 [18] = test: Hepatoprotective activity in human Huh-7 cells assessed as increasing in GSH level; type: functional
[19] = Antiproliferative activity against rat HSC-T6 assessed as reduction in cell viability at 100 uM measured at 48 hrs by MTT assay relative to control; type: functional
Hepatocyte [20] = test: Hepatoprotective activity against D-GaIN-induced toxicity in mouse hepatocytes at 3 uM relative to control; type: functional
Hepatocyte [21] = test: Hepatoprotective activity against D-GaIN-induced toxicity in mouse hepatocytes at 10 uM relative to control; type: functional
Hepatocyte [22] = test: Hepatoprotective activity against D-GaIN-induced toxicity in mouse hepatocytes at 30 uM relative to control; type: functional
Hepatocyte [23] = test: Hepatoprotective activity against D-GaIN-induced toxicity in mouse hepatocytes at 100 uM relative to control; type: functional

C[C@H]1O[C@@H](O[C@H]2CC[C@@]3(C)[C@@H](CC[C@]4(C)[C@@H]3C=C[C@]35OC[C@@]6(CCC(C)(C)C[C@H]63)[C@@H](O)C[C@]54C)[C@]2(C)CO)[C@H](O[C@@H]2O[C@H](CO)[C@@H](O)[C@H](O)[C@H]2O)[C@@H](O[C@@H]2O[C@H](CO)[C@@H](O)[C@H](O)[C@H]2O)[C@H]1O [BUDDLEJASAPONIN IV]
Activity (Hepatocyte [1]): 74.96%

C=C1[C@H](O)C[C@]2(C)CC[C@]3(C)C(=C[C@@H](O)[C@@H]4[C@@]5(C)CC[C@H](OC(C)=O)C(C)(C)[C@@H]5CC[C@]43C)[C@@H]2[C@@H]1C
Activity (Mus musculus [2]): 15.7 U/ml

C=C(C)[C@@H]1CC[C@]2(C(=O)O)CC[C@]3(C)[C@H](CC[C@@H]4[C@@]5(C)CC[C@H](O)C(C)(C)[C@@H]5CC[C@]43C)[C@@H]12 [BETULINIC ACID]
Activity (Mus musculus [3]): 52.7%
Activity (Hepatocyte [4]): 23%
Activity (Hepatocyte [5]): 26.1%
Activity (Hepatocyte [6]): 39.2%

CC1(C)CC[C@]2(C(=O)O[C@@H]3O[C@H](CO[C@@H]4O[C@H](CO)[C@@H](O)[C@H](O)[C@H]4O)[C@@H](O)[C@H](O)[C@H]3O)CC[C@]3(C)C(=CC[C@@H]4[C@@]5(C)CCC(O[C@@H]6OC[C@H](O)[C@H](O)[C@H]6O)[C@@](C)(CO)[C@@H]5CC[C@]43C)[C@@H]2C1 (some centres undefined)
Activity (Hepatocyte [7]): 167.5 U/L
Activity (Hepatocyte [8]): 82.1 U/L
Activity (Hepatocyte [9]): 9.22 nmol/mg
Activity (Hepatocyte [10]): 5.3 mg/g
Activity (Hepatocyte [11]): 161.4 U/L

C[C@@H]1CC[C@]2(C(=O)O[C@@H]3O[C@H](CO)[C@@H](O)[C@H](O)[C@H]3O)CC[C@]3(C)C(=CC[C@@H]4[C@@]5(C)C[C@@H](O)C(=O)C(C)(C)[C@@H]5CC[C@]43C)[C@@H]2[C@]1(C)O
pIC50 (Hepatocyte [12]): 4.33
inhibition in vivo at 100 mg/kg (Mus musculus [13]): 76.8%
inhibition in vivo at 100 mg/kg (Mus musculus [14]): 78.4%
IC50 (Hepatocyte [15]): 46.7 µM

COC(=O)[C@]12CC[C@@H](C)[C@H](C)[C@H]1C1=CC[C@@H]3[C@@]4(C)C[C@@H](OC)[C@H](OC(C)=O)[C@@](C)(COC(C)=O)[C@@H]4CC[C@@]3(C)[C@]1(C)CC2
Activity (Rattus norvegicus): 33.3%

C[C@H]1[C@H](C)CC[C@]2(C(=O)O)CC[C@]3(C)C(=CC[C@@H]4[C@@]5(C)CC[C@H](O)C(C)(C)[C@@H]5CC[C@]43C)[C@H]12 [URSOLIC ACID]
Activity (Huh-7 [16]): 37.5%
Activity (Huh-7 [17]): 37.5%
Activity (Huh-7 [18]): 2.37 mg

C[C@H]1[C@@H](O)CC[C@@H]2[C@]1(C)CC[C@H]1[C@@]2(C)CC[C@@]2(C)[C@@H]3CC(C)(C)CC[C@]3(C)CC[C@]12C [EPIFRIEDELINOL]
Activity [19]: 61%

CC1(C)CC[C@]2(C(=O)O[C@@H]3O[C@H](CO)[C@@H](O)[C@H](O)[C@H]3O)CC[C@]3(C)C(=CC[C@@H]4[C@@]5(C)C[C@@H](O)[C@H](O)C(C)(C)[C@@H]5CC[C@]43C)[C@@H]2[C@@H]1O
Activity (Hepatocyte [20]): 11.1%
Activity (Hepatocyte [21]): 24.5%
Activity (Hepatocyte [22]): 25.2%
Activity (Hepatocyte [23]): 15.6%

Reference: ChEMBL document CHEMBL5260832, “Hepatoprotective natural triterpenoids” (Eur J Med Chem, 2018)
